Test [1] is described as follows: The toxicity was evaluated against KB cells using podophyllotoxin (ED50 0.2 nM) as a standard. The format is functional. The note with it: Homo sapiens, read-out: ED50 (the source's name).
For another test, the system named is Plasmodium falciparum. The test can be described thus: In vitro inhibitory activity against Plasmodium falciparum. The format is functional, organism-based.
In test [2] the test system is Trypanosoma cruzi. The test can be described thus: (§1) In vitro Trypanosoma cruzi (TC). The format is functional. As to conditions: read-out: ED50 (the source's name).
For test [3], the system named is Trypanosoma cruzi. The test is described as §1. It is filed as functional, organism-based.
Test [4] can be described thus: The toxicity was evaluated against KB cells. It is filed as functional. As to conditions: Homo sapiens, read-out: ED50 (the source's name).

For the compound `CCCC(=O)Oc1c(OC)c(OC)cc2c1C(=O)[C@]1(OC)C=C[C@H]2N(c2ccccc2)O1`, the EC50 was 3.2 µM in test [1] and more than 68.3 µM in the test with Trypanosoma cruzi [2]. In addition, the 50% inhibitory concentration (IC50) – broadly, the concentration that gives 50% inhibition – in the test on Plasmodium falciparum turned out to be 3.9 µM.

`COc1cc2c(c(OC(=O)c3ccc(F)cc3)c1OC)C(=O)[C@]1(OC)C=C[C@H]2N(c2ccccc2)O1`: the EC50 in test [1] turned out to be 6.5 µM; in the test with Trypanosoma cruzi [2], 9.2 µM. Further, the 50% inhibitory concentration (IC50) with Plasmodium falciparum is 7.5 µM.

`COc1ccc(C(=O)Oc2c(OC)c(OC)cc3c2C(=O)[C@]2(OC)C=C[C@H]3N(c3ccccc3)O2)cc1`: the EC50 in test [1] was 13.3 µM; in the test with Trypanosoma cruzi [2], more than 59.6 µM. Further, in the test with Plasmodium falciparum, the IC50 was 6.6 µM.

In the case of `COc1cc2c(c(OC)c1OC)C(=O)[C@]1(OC)C=C[C@H]2N(c2ccccc2)O1`, the EC50 in test [1] is less than 0.8 µM; in the test on Trypanosoma cruzi [2], 65.3 µM. Besides, half-maximal inhibition in the test on Plasmodium falciparum (IC50) was put at 8.9 µM.

`COc1cc2c(c(O)c1OC)C(=O)[C@]1(OC)C=C[C@H]2N(c2ccccc2)O1`: the figures for the EC50 (in test [1]; in the test on Trypanosoma cruzi [2]) were less than 0.8 µM and 4.3 µM, respectively. In the test with Plasmodium falciparum, the IC50 worked out at 5.4 µM.

Regarding `COc1cc2c(c(OC(=O)c3ccccc3)c1OC)C(=O)[C@]1(OC)C=C[C@H]2N(c2ccccc2)O1`, the EC50 in test [1] was 11.8 µM; with Trypanosoma cruzi [2], more than 63.4 µM. The compound also returned an IC50 in the test with Plasmodium falciparum of 3.4 µM.

For the compound `COc1cc2c(c(OC(=O)COC(C)=O)c1OC)C(=O)[C@]1(OC)C=C[C@H]2N(c2ccccc2)O1`, the EC50 in test [1] was 128 µM; in the test with Trypanosoma cruzi [2], more than 63.9 µM. The same compound showed an IC50 in the test on Plasmodium falciparum of 3.2 µM.

In the case of `COc1cc2c(c(OC(=O)c3ccc(Cl)cc3)c1OC)C(=O)[C@]1(OC)C=C[C@H]2N(c2ccccc2)O1`, the EC50 in test [1] was 29.1 µM; with Trypanosoma cruzi [2] it was more than 59 µM. In the test with Plasmodium falciparum, this compound yielded a concentration for half-maximal inhibition (IC50) of more than 59 µM.

For the compound `CCC(=O)Oc1c(OC)c(OC)cc2c1C(=O)[C@]1(OC)C=C[C@H]2N(c2ccccc2)O1`, the EC50 in test [1] was less than 0.7 µM. Also, the figures for the IC50 in the test on Plasmodium falciparum and in the test with Trypanosoma cruzi [3] were 6.6 µM and more than 70.5 µM, respectively.

`COc1cc2c(c(OC(C)=O)c1OC)C(=O)[C@]1(OC)C=C[C@H]2N(c2ccccc2)O1`: the EC50 in test [1] came out at 6.3 µM. The IC50 in the test with Plasmodium falciparum is 5.3 µM; in the test with Trypanosoma cruzi [3], 23.8 µM.

With `COc1cc2c(c(OC(=O)c3ccccc3F)c1OC)C(=O)[C@]1(OC)C=C[C@H]2N(c2ccccc2)O1`, the figures for the EC50 (in test [1]; with Trypanosoma cruzi [2]) were 7.7 µM and more than 61 µM, respectively. Inhibition in the test with Plasmodium falciparum was half-maximal at 6.3 µM (IC50).

For the compound `COc1cc2c(c(OC(=O)CN3C(=O)c4ccccc4C3=O)c1OC)C(=O)[C@]1(OC)C=C[C@H]2N(c2ccccc2)O1`, the EC50 in test [1] worked out at 89.8 µM; in the test on Trypanosoma cruzi [2], 11.9 µM. Inhibition in the test with Plasmodium falciparum was half-maximal at 6.1 µM (IC50).

As to `O=C(Cn1ccnc1[N+](=O)[O-])NCc1ccccc1` [BENZNIDAZOLE], the EC50 in the test with Trypanosoma cruzi [2] worked out at 7.1 µM.

As to `COc1cc([C@@H]2c3cc4c(cc3[C@H](O)[C@H]3COC(=O)[C@H]23)OCO4)cc(OC)c1OC` [PODOFILOX], the EC50 in test [4] is 0.0002 µM.
